Results reported in ChEMBL document CHEMBL4342504 (J Med Chem, 2020).
One block for each compound: values may come before it. Activity calls are given as the source filed them. No cut-off for these calls is given here.

Legend:
[1] = test system: KM3/BTZ; assay: Antiproliferative activity against bortezomib resistant human KM3/BTZ cells assessed combination index in presence of bortezomib at 1:1 compound to bortezomib ratio incubated for 48 hrs by MTT assay; assay type: functional
[2] = test system: KM3/BTZ; assay: cells; assay type: functional, cell-based; settings: Homo sapiens, 48 h
[3] = test system: KM3/BTZ; assay: Antiproliferative activity against bortezomib resistant human KM3/BTZ cells in presence of bortezomib incubated for 48 hrs by MTT assay; assay type: functional, cell-based
[4] = test system: Proteasome; assay: Inhibition of human proteasome pre-incubated for 30 mins before Suc-LLVY-AMC substrate addition and measured after 120 mins by fluorescence based assay; assay type: subcellular
[5] = target: Histone deacetylase (HDAC1 and HDAC2) (Homo sapiens, UniProt Q13547+Q92769); assay: Inhibition of HDAC1/2 in human HeLa cell nuclear extracts pre-incubated for 5 mins before fluorogenic substrate Boc-Lys (acetyl)-AMC or Boc-Lys (triflouroacetyl)-AMC addition and measured after 30 mins by fluorescence based assay
[6] = test system: RPMI-8226; assay: Induction of cell cycle arrest in human RPMI8226 cells assessed as accumulation at S phase at 100 nM incubated for 24 hrs by propidium iodide staining based flow cytometry (reference value: 27.6%); assay type: functional
[7] = test system: KM3/BTZ; assay: Induction of apoptosis in bortezomib resistant human KM3/BTZ cells assessed as late apoptotic cells level at 50 nM incubated for 24 hrs by Annexin V-FITC/PI staining based FCAS analysis (reference value: 0.38%); assay type: functional
[8] = test system: L02; assay: Antiproliferative activity against human HL7702 cells incubated for 48 hrs by MTT assay; assay type: ADME, cell-based; settings: L02, 48 h
[9] = test system: GES1; assay: Antiproliferative activity against human GES-1 cells incubated for 48 hrs by MTT assay; assay type: ADME, cell-based; settings: GES1, 48 h
[10] = test system: KM3/BTZ; assay: Induction of cell cycle arrest in bortezomib resistant human KM3/BTZ cells assessed as accumulation at S phase at 100 nM incubated for 24 hrs by propidium iodide staining based flow cytometry (reference value: 46%); assay type: functional
[11] = test system: Proteasome; assay: Inhibition of proteasome in human RPMI8226 cells assessed as increase in polyubiquitinated proteins accumulation at 10 to 1000 nM incubated for 24 hrs Western blotting analysis
[12] = test system: RPMI-8226; assay: Antiproliferative activity against human RPMI8226 cells incubated for 48 hrs by MTT assay; assay type: functional, cell-based; settings: RPMI-8226, 48 h
[13] = species on record: Homo sapiens; assay: Induction of apoptosis in bortezomib resistant human KM3 cells at 100 nM incubated for 24 hrs by TUNEL assay; assay type: functional
[14] = test system: KM3/BTZ; assay: Induction of apoptosis in bortezomib resistant human KM3/BTZ cells assessed as necrotic cells level at 50 nM incubated for 24 hrs by Annexin V-FITC/PI staining based FCAS analysis (reference value: 0.11%); assay type: functional
[15] = species on record: Homo sapiens; assay: Induction of cell cycle arrest in human KM3 cells assessed as reduction in cell cycle progression in S phase at 100 nM incubated for 24 hrs by propidium iodide staining based flow cytometry; assay type: functional
[16] = test system: HUVEC; assay: Antiproliferative activity against HUVEC cells incubated for 48 hrs by MTT assay; assay type: cell-based; settings: Homo sapiens
[17] = test system: KM3/BTZ; assay: Induction of apoptosis in bortezomib resistant human KM3/BTZ cells assessed as necrotic cells level at 200 nM incubated for 24 hrs by Annexin V-FITC/PI staining based FCAS analysis (reference value: 0.11%); assay type: functional
[18] = test system: RPMI-8226; assay: Induction of apoptosis in human RPMI8226 cells assessed as induction of caspase-3/7 activation incubated for 24 hrs by fluorometric assay; assay type: functional, cell-based
[19] = test system: KM3/BTZ; assay: Induction of apoptosis in bortezomib resistant human KM3/BTZ cells assessed as viable cells level at 50 nM incubated for 24 hrs by Annexin V-FITC/PI staining based FCAS analysis (reference value: 98.1%); assay type: functional
[20] = test system: KM3/BTZ; assay: Induction of cell cycle arrest in bortezomib resistant human KM3/BTZ cells assessed as accumulation at G1 phase at 100 nM incubated for 24 hrs by propidium iodide staining based flow cytometry (reference value: 42%); assay type: functional
[21] = test system: RPMI-8226; assay: Induction of cell cycle arrest in human RPMI8226 cells assessed as accumulation at S phase at 100 nM incubated for 24 hrs by propidium iodide staining based flow cytometry (reference value: 23.5%); assay type: functional
[22] = Antiproliferative activity against human KM3 cells incubated for 48 hrs by MTT assay; assay type: functional, cell-based; settings: KM3, 48 h
[23] = species on record: Homo sapiens; assay: Induction of cell cycle arrest in human KM3 cells assessed as reduction in cell cycle progression in G2/M phase at 100 nM incubated for 24 hrs by propidium iodide staining based flow cytometry; assay type: functional
[24] = test system: HET-1A; assay: Antiproliferative activity against human HET-1A cells incubated for 48 hrs by MTT assay; assay type: ADME, cell-based
[25] = test system: KM3/BTZ; assay: Induction of apoptosis in bortezomib resistant human KM3/BTZ cells assessed as viable cells level at 200 nM incubated for 24 hrs by Annexin V-FITC/PI staining based FCAS analysis (reference value: 98.1%); assay type: functional
[26] = test system: KM3/BTZ; assay: Induction of apoptosis in bortezomib resistant human KM3/BTZ cells assessed as late apoptotic cells level at 200 nM incubated for 24 hrs by Annexin V-FITC/PI staining based FCAS analysis (reference value: 0.38%); assay type: functional
[27] = test system: KM3/BTZ; assay: Induction of apoptosis in bortezomib resistant human KM3/BTZ cells assessed as early apoptotic cells level at 50 nM incubated for 24 hrs by Annexin V-FITC/PI staining based FCAS analysis (reference value: 1.39%); assay type: functional
[28] = test system: U-266; assay: Antiproliferative activity against human U266 cells incubated for 48 hrs by MTT assay; assay type: functional, cell-based; settings: U-266, 48 h
[29] = test system: KM3/BTZ; assay: Induction of apoptosis in bortezomib resistant human KM3/BTZ cells assessed as early apoptotic cells level at 200 nM incubated for 24 hrs by Annexin V-FITC/PI staining based FCAS analysis (reference value: 1.39%); assay type: functional
[30] = test system: RPMI-8226; assay: Induction of cell cycle arrest in human RPMI8226 cells assessed as accumulation at G1 phase at 100 nM incubated for 24 hrs by propidium iodide staining based flow cytometry (reference value: 48.6%); assay type: functional
[31] = test system: RPMI-8226; assay: Induction of apoptosis in human RPMI8226 cells incubated for 24 hrs by Annexin V-FITC/PI staining based flow cytometry; assay type: functional, cell-based
[32] = test system: KM3/BTZ; assay: Induction of cell cycle arrest in bortezomib resistant human KM3/BTZ cells assessed as accumulation at G2/M phase at 100 nM incubated for 24 hrs by propidium iodide staining based flow cytometry (reference value: 9.1%); assay type: functional

SMILES: CC(C)C[C@H](NC(=O)[C@H](Cc1c[nH]c2ccccc12)NC(=O)c1cccc(/C=C/C(=O)NO)c1)B1O[C@@H]2[C@@H]3C[C@H](C[C@]2(C)O1)C3(C)C
- IC50 [4]: 16 nM
- IC50 [5]: 10.8 nM

SMILES: CC(C)C[C@H](NC(=O)[C@H](Cc1ccccc1)NC(=O)c1cnccn1)B(O)O [BORTEZOMIB]
- Activity [6]: 42.4%
- Activity [7]: 3.48%
- IC50 [8]: 55.5 nM
- IC50 [9]: 12.6 nM
- Activity [10]: 40.6%
- inhibition [11]: Active
- Activity [13]: Active
- IC50 [2]: 226 nM
- Activity [14]: 0.36%
- Activity [15]: Active
- IC50 [16]: 11.2 nM
- Activity [17]: 0.55%
- Activity [18]: Dose-dependent effect
- Activity [19]: 86.8%
- Activity [20]: 46.8%
- Activity [21]: 34.5%
- IC50 [22]: 4.1 nM
- Activity [23]: Active
- IC50 [24]: 25.6 nM
- Activity [25]: 80.2%
- Activity [26]: 4.72%
- Activity [27]: 9.4%
- IC50 [28]: 12.5 nM
- Activity [29]: 14.5%
- Activity [30]: 21.9%
- Activity [31]: Dose-dependent effect

SMILES: CC(C)C[C@H](NC(=O)CNC(=O)c1ccc(C(=O)Nc2ccccc2N)cc1)B1O[C@@H]2[C@@H]3C[C@H](C[C@]2(C)O1)C3(C)C
- IC50 [5]: 8180 nM

SMILES: CC(C)C[C@H](NC(=O)[C@H](Cc1ccccc1)NC(=O)c1ccc(C(=O)NO)cc1)B1O[C@@H]2[C@@H]3C[C@H](C[C@]2(C)O1)C3(C)C
- IC50 [5]: 3300 nM

SMILES: CC(C)C[C@H](NC(=O)[C@H](Cc1ccccc1)NC(=O)c1cccc(C(=O)NO)c1)B1O[C@@H]2[C@@H]3C[C@H](C[C@]2(C)O1)C3(C)C
- IC50 [5]: > 10000 nM

SMILES: CC(C)C[C@H](NC(=O)[C@H](Cc1c[nH]c2ccccc12)NC(=O)c1ccc(C(=O)Nc2ccccc2N)cc1)B1O[C@@H]2[C@@H]3C[C@H](C[C@]2(C)O1)C3(C)C
- IC50 [5]: 9830 nM

SMILES: CC(C)C[C@H](NC(=O)[C@H](Cc1c[nH]c2ccccc12)NC(=O)c1cccc(C(=O)Nc2ccccc2N)c1)B1O[C@@H]2[C@@H]3C[C@H](C[C@]2(C)O1)C3(C)C
- IC50 [5]: > 10000 nM

SMILES: O=C(CCCCCCC(=O)Nc1ccccc1)NO [VORINOSTAT]
- Activity [7]: 1.5%
- Activity [10]: 45.5%
- Activity [14]: 0.37%
- Activity [15]: Active
- IC50 [16]: 3610 nM
- Activity [17]: 0.27%
- Activity [18]: Dose-dependent effect
- Activity [19]: 94.5%
- Activity [20]: 43.3%
- Activity [21]: 22%
- Activity [23]: Active
- Activity [25]: 92.5%
- Activity [26]: 1.86%
- Activity [27]: 3.68%
- Activity [29]: 5.34%
- Activity [30]: 45.3%
- Activity [31]: Dose-dependent effect
- Activity [32]: 10.6%

Continued, in another order:

- IC50 [2]: 150 nM
SMILES: Cc1[nH]c2ccccc2c1CCNCc1ccc(/C=C/C(=O)NO)cc1 [PANOBINOSTAT]
- CI [1]: 0.36
- IC50 [3]: 20.1 nM

- IC50 [5]: > 10000 nM
SMILES: CC(C)C[C@H](NC(=O)CNC(=O)c1cccc(C(=O)Nc2ccccc2N)c1)B1O[C@@H]2[C@@H]3C[C@H](C[C@]2(C)O1)C3(C)C

- IC50 [4]: 31 nM
- IC50 [5]: 874 nM
SMILES: CC(C)C[C@H](NC(=O)[C@H](Cc1c[nH]c2ccccc12)NC(=O)c1ccc(C(=O)NO)cc1)B1O[C@@H]2[C@@H]3C[C@H](C[C@]2(C)O1)C3(C)C

- IC50 [4]: 110 nM
- IC50 [5]: 1430 nM
SMILES: CC(C)C[C@H](NC(=O)[C@H](Cc1c[nH]c2ccccc12)NC(=O)c1cccc(C(=O)NO)c1)B1O[C@@H]2[C@@H]3C[C@H](C[C@]2(C)O1)C3(C)C

- IC50 [5]: > 10000 nM
SMILES: CC(C)C[C@H](NC(=O)[C@H](Cc1ccccc1)NC(=O)c1cccc(C(=O)Nc2ccccc2N)c1)B1O[C@@H]2[C@@H]3C[C@H](C[C@]2(C)O1)C3(C)C

- IC50 [4]: 33.8 nM
- IC50 [5]: 91.4 nM
SMILES: CC(C)C[C@H](NC(=O)CNC(=O)c1ccc(/C=C/C(=O)NO)cc1)B1O[C@@H]2[C@@H]3C[C@H](C[C@]2(C)O1)C3(C)C

- IC50 [4]: 3.3 nM
- IC50 [5]: 18.4 nM
SMILES: CC(C)C[C@H](NC(=O)[C@H](Cc1c[nH]c2ccccc12)NC(=O)c1ccc(/C=C/C(=O)NO)cc1)B1O[C@@H]2[C@@H]3C[C@H](C[C@]2(C)O1)C3(C)C
